The term solubility denotes the concentration that dissolves in the medium under given conditions. High values mean much dissolved substance, low ones little dissolved substance.

Experimental findings from patent publication US20040242538A1, “Method to improve complexation efficacy and produce high-energy cylodextrincomplexes” (priority 2001, published 2004) are described below.

In brackets after ≈: the same amount, converted by molar mass.

One data set can be described thus: physchem. The settings on record: pH 7.4, aqueous buffer, thermodynamic from solid.
Data set [1] can be described thus: Stability of the drug in complexes during heating in the vacuum oven (HPLC). In kind it is physicochemical. To be noted: complexes heated at 90° C. for several days.
Protocol: All solutions were lyophilized, then the obtained complex was sieved through a 300 μm sieve and heated in a vacuum oven at 60-90° C. for several days, depending on the drug being investigated.
The amount of drug per gram sample was determined on a high performance liquid chromatographic (HPLC) component system, consisting of ConstaMetric 3200 solvent delivery system operated at 1.5 ml/min, a SpectroMonitor 3200 UV/VIS variable-wavelength detector, a Merck-Hitachi AS-2000A autosampler, Merck Hitachi D-2500 Chromato-Integrator and a Phenomex ODS 5 μm (150×4.6 mm) column.
Selected Basic drug A complexes were analysed after heating in the vacuum oven at 90° C. for several days.

Protocol for physchem: To investigate this special property of the complexes, 50 mg of complex containing the basic drug was dissolved in 25 ml of phosphate buffer 0.1 M, pH 7.4. 100 μl samples were taken from this solution and measured for 1-96 hours depending on the complex being investigated. […] Solid drug particles with and without cyclodextrin were also weighed and placed in the buffer to show the difference in solubility between samples of the drug alone, drug and cyclodextrin in a standard mixture, and drug in complex with cyclodextrin.
The solid complexes were heated in a vacuum oven for 4 days at 88° C. and 0.13×10^2 Pa. Each complex contained about 0.2 equivalents of acetic acid. A 50 mg sample of each complex was dissolved in 25 ml of the buffer. […] 12 mg of solid Basic drug A particles were also dissolved in 50 ml of the buffer with or without 38 mg of HPβCD to show the effect of complexing.

`Cc1ccc(N2CCN(C)CC2)c2c1CC[C@@H](NC(=O)c1ccc(N3CCOCC3)cc1)C2` [Basic drug A, (R)-N-[5-methyl-8-(4-methylpiperazin-1-yl)-1,2,3,4-tetrahydro-2-naphthyl]-4-morpholinobenzamide] yielded a solubility in the data set “physchem” of 34 µg/mL (≈ 75.8 µM). For the same compound, the “stability during heating in the vacuum oven” value in data set [1] is “stable during heating in the vacuum oven”.
